Data taken from patent US20210002712A1, “PHOSPHATIDIC ACID SENSOR” (NATIONAL UNIVERSITY CORPORATION CHIBA UNIVERSITY, priority 2019, published 2021).

Assay: Liposome cosedimentation assay, 18:1/18:1-PA liposomes
Format: binding
Settings: 6×His-SUMO-tagged protein 2.5 μM; PA 150 μM
Experimental: FIG. 1. A schematic architecture of α-Syn and its deletion mutants. FIG. 2. The purified SUMO-tagged-α-Syn and its deletion mutant protein (2.5 μM) were incubated with 18:1/18:1-PA or 18:1/18:1-PS liposomes (PA or […]: 150 μM) and then separated by ultracentrifugation. SDS-PAGE (15%) was performed and separated proteins were stained with Coomassie Brilliant Blue. The positions of α-Syn and its mutants are indicated with arrow heads. The amounts of protein in the supernatant (S) and precipitant (P) were quantified by densitometry using ImageJ software. Binding activity was calculated as the percentage of the precipitate band intensity compared to the total band intensities. Values are presented as the mean±S.D. of four independent experiments. **P<0.01 versus the 18:1/18:1-PS liposome.
FIG. 3. The purified SUMO-tagged-α-Syn-N protein (2.5 μM) was incubated with control (PC and Chol alone), 16:0/16:0-PA, 16:0/18:1-PA, 18:1/18:1-PA, or 18:0/18:0-PA liposomes (PA: 150 μM) and then separated by ultracentrifugation. SDS-PAGE (15%) was performed and separated proteins were stained with Coomassie Brilliant Blue. The position of α-Syn-N is indicated with an arrow head.
FIG. 4. The amounts of protein in the supernatant (S) and precipitant (P) were quantified by densitometry using ImageJ software. Binding activity was calculated as the percentage of the precipitate band intensity compared to the total band intensities. Values are presented as the mean±S.D. of three independent experiments. #P<0.05, ##P<0.01, ###P<0.005 versus the 18:1/18:1-PA-liposome, *P<0.05, ***P<0.005 versus the control liposome.
(§1) FIG. 5. The purified SUMO-tagged-α-Syn protein (0.1 μM) was incubated with 18:1/18:1-PA liposomes of the indicated concentrations (0-20 μM) and then separated by ultracentrifugation. SDS-PAGE (15%) was performed and separated proteins were detected with silver staining. The position of α-Syn-N is indicated with an arrow head.
FIG. 6. The amounts of protein in the precipitant were quantified by densitometry using ImageJ software. Binding activity was calculated as the percentage of the precipitate band intensity compared to the total band intensities (Input). Values are presented as the mean±S.D. of four independent experiments. The Kd was determined using GraphPad Prism 8 (Dissociation-One phase exponential decay).
as §1, with “7.” for “5.”, “18:1/18:1-PA, 18:1/18:1-PS, 18:1/18:1-PI(4,5)P2, 18:1/18:1-PE and d18:1/18:1-C1P” for “18:1/18:1-PA”, “(20” for “of the indicated concentrations (0-20”, “(15%) analysis” for “(15%)”
FIG. 8. The amounts of protein in the precipitant were quantified by densitometry using ImageJ software. The PA binding activity of α-Syn-N was set to 100%. Values are presented as the mean±S.D. of three independent experiments. ***P<0.005 versus 18:1/18:1-PA liposome.
The following lipid mixtures were used: the control liposome: Chol (50 mol %) and 16:0/18:1-PC (50 mol %); and the PA liposome: Chol (50 mol %), 16:0/18:1-PC (35 mol %) and each PA species (15 mol %). The combined dried lipid mixture was resuspended in HEPES buffer. Then, the lipid mixture was vortexed for 1 min. Liposome formation was induced by sonication at 75° C. The purified SUMO-tagged α-Syn and its deletion mutants (2.5 μM) were dissolved in HEPES buffer and incubated with the control or PA-containing liposomes at room temperature for 1 h. Then, the samples were centrifuged at 200,000 g at 4° C. for 1 h. The precipitant was dissolved in HEPES buffer. The supernatant and pellet were analyzed by SDS-PAGE followed by Coomassie Brilliant Blue and silver staining. Quantitative densitometry was performed using ImageJ software. Since the lipid forms a bilayer, half of the actual concentration was considered.

Substance	PA-binding activity (18:1/18:1-PA liposomes)
α-Syn-NAC-C: NAC and C deletion mutant of α-Syn (Glu61-Ala140), 6×His-SUMO-tagged	failed to show substantial PA-binding activity
α-Syn-NAC: non-amyloid-β-component deletion mutant of α-Syn (Glu61-Val95), 6×His-SUMO-tagged	failed to show substantial PA-binding activity
α-Syn-C: C-terminal region deletion mutant of α-Syn (Lys96-Ala140), 6×His-SUMO-tagged	failed to show substantial PA-binding activity
